One data set has as its system sperm. The data set is described as follows: Modified Sander-Cramer assay (complete sperm immobilization). In kind it is cell-based. Conditions: solvent 0.9% NaCl pH 5, 30-second coincubation, n=6. Here is the method: The above formulations were used in a series of (i) Sander-Cramer assays (assessment of complete sperm immobilization during a 30-second, compound-sperm coincubation); and (ii) cervical mucous (CM) penetration assays (compound is pre-incubated with a CM microcolumn for 30 minutes, after which sperm are introduced into the system; sperm migration through the mucous is compared to that of control).

The nature of data set [1]: Solubility in assay solvent (Table 1). In kind it is physicochemical. Conditions: in 0.9% NaCl pH 5 at initial conc.

nonoxynol-9: in the data set with sperm (initial conc 1 mg/ml), the “HIGHEST SPERMICIDAL DILUTION (1/X)” value is on record as 8.0 ± 0.0 1/X. In the data set on sperm, the “M.E.C. (Minimum Effective Concentration)” value came to 0.125 ± 0.000 mg/mL. Also, in data set [1], the SOLUBILITY result is “OK - clear”.

The values above are taken from US20070116745A1, “Spermicidal preparations and uses thereof” (CONVE LTD., priority 2004, published 2007).
